One may read the inhibition as the change of the read-out against control, counted positive when it falls.

Structures are written as SMILES. Where two headings read alike, the source gives them in different places. Where only a bound is given, the exact number is not on record here.

One test deals with Haemonchus contortus. As to the kind of experiment: Method A: Haemonchus contortus L1 larval development/motility screen in microtitre plate. The test is classed as cell-based. The conditions noted are these: 96 h, read-out: motility inhibition.
Test [1] deals with microfilaria of Dirofilaria immitis. As to the kind of experiment: Method C: microfilaria of Dirofilaria immitis motility screen. The format is cell-based. The conditions noted are these: read-out: inhibition of the microfilaria's motility.

In the case of `CCCCC(=O)N1CCN(c2cncc(O[C@H]3CC[C@H](Nc4ccc([N+](=O)[O-])c(C(F)(F)F)c4)CC3)c2)CC1` [Compound 19, 1-[4-(5-[[4-[[4-nitro-3-(trifluoromethyl)phenyl]amino]cyclohexyl]oxy]pyridin-3-yl)piperazin-1-yl]pentan-1-one], in the test on Haemonchus contortus, the inhibition at 5 µM is no less than 90%. Take `O=C(CC1CCCC1)N1CCN(c2cncc(O[C@H]3CC[C@H](Nc4ccc([N+](=O)[O-])c(C(F)(F)F)c4)CC3)c2)CC1` [Compound 20]: the inhibition at 5 µM in the test on Haemonchus contortus was no less than 90%. The same measure, in the same setting: then `CC(C)(C)OC(=O)N1CCN(c2cncc(O[C@H]3CC[C@H](Nc4ccc(C#N)c(C(F)(F)F)c4)CC3)c2)CC1` [Compound 50], with no less than 90%. With `O=[N+]([O-])c1ccc(N[C@H]2CC[C@H](Oc3ccnc(N4CCN(Cc5ccc(C(F)(F)F)cc5)CC4)c3)CC2)cc1C(F)(F)F` [Compound 56], in test [1] (24 h), the inhibition at 1 ppm was no less than 90% and the inhibition at 5 ppm was no less than 90%. For `O=[N+]([O-])c1ccc(N[C@H]2CC[C@H](Oc3cncc(N4CCN(Cc5nc6cc(C(F)(F)F)ccc6s5)CC4)c3)CC2)cc1C(F)(F)F` [Compound 62], in the test on Haemonchus contortus, the inhibition at 5 µM is no less than 90%. The same measure, in the same setting: then `O=[N+]([O-])c1ccc(N[C@H]2CC[C@H](Oc3cncc(N4CCN(S(=O)(=O)C(F)(F)F)CC4)c3)CC2)cc1C(F)(F)F` [Compound 63], with no less than 90%; and `CCCOC(=O)N1CCN(c2ccnc(O[C@H]3CC[C@H](Nc4ccc(C#N)c(C(F)(F)F)c4)CC3)c2)CC1` [Compound 74], with no less than 90%; and `CC(C)(C)CN1CCN(c2ccnc(O[C@H]3CC[C@H](Nc4ccc([N+](=O)[O-])c(C(F)(F)F)c4)CC3)c2)CC1` [Compound 84], with no less than 90%. Regarding `O=[N+]([O-])c1ccc(N[C@H]2CC[C@H](Oc3cncc(N4CCN(C(=S)Nc5ccc(C(F)(F)F)cc5)CC4)c3)CC2)cc1C(F)(F)F` [Compound 88], the inhibition at 5 µM with Haemonchus contortus is no less than 90%.

For the molecule `O=[N+]([O-])c1ccc(N[C@H]2CC[C@H](Oc3cncc(N4CCN(c5ccc6cc(C(F)(F)F)ccc6n5)CC4)c3)CC2)cc1C(F)(F)F` [Compound 90], in the test on Haemonchus contortus, the inhibition at 5 µM was no less than 90%. In the case of `CC(C)(C)NC(=S)N1CCN(c2cncc(O[C@H]3CC[C@H](Nc4ccc([N+](=O)[O-])c(C(F)(F)F)c4)CC3)c2)CC1` [Compound 91], the inhibition at 5 ppm in test [1] (24 h) was no less than 90%. Turning to `O=[N+]([O-])c1ccc(N[C@H]2CC[C@H](Oc3cncc(N4CCN(C(=S)Nc5ccc(F)cc5)CC4)c3)CC2)cc1C(F)(F)F` [Compound 92], in test [1] (24 h), the inhibition at 5 ppm is no less than 90%. On the same count and under the same terms, then `CC(C)(C)NC(=S)N1CCN(c2ccnc(O[C@H]3CC[C@H](Nc4ccc([N+](=O)[O-])c(C(F)(F)F)c4)CC3)c2)CC1` [Compound 93], with no less than 90%. Turning to `O=C(Nc1ccc(C(F)(F)F)cc1)N1CCN(c2cncc(O[C@H]3CC[C@H](Nc4ccc([N+](=O)[O-])c(C(F)(F)F)c4)CC3)c2)CC1` [Compound 94], the inhibition at 5 µM in the test with Haemonchus contortus was no less than 90%. In the case of `CCCNC(=S)N1CCN(c2ccnc(O[C@H]3CC[C@H](Nc4ccc([N+](=O)[O-])c(C(F)(F)F)c4)CC3)c2)CC1` [Compound 99], in test [1] (24 h), the inhibition at 1 ppm is no less than 90% and the inhibition at 5 ppm is no less than 90%. Take `O=[N+]([O-])c1ccc(N[C@H]2CC[C@H](Oc3ccnc(N4CCN(CC(F)(F)F)CC4)c3)CC2)cc1C(F)(F)F` [Compound 108]: in test [1] (24 h), the inhibition at 5 ppm was no less than 90%.

Regarding `CCOC(=O)N1CCN(c2cccc(O[C@H]3CC[C@H](Nc4ccc([N+](=O)[O-])c(C(F)(F)F)c4)CC3)n2)CC1` [Compound 110], the inhibition at 5 ppm in test [1] (24 h) was no less than 90%. With `O=C(Nc1ccc(F)cc1)N1CCN(c2ccnc(O[C@H]3CC[C@H](Nc4ccc([N+](=O)[O-])c(C(F)(F)F)c4)CC3)c2)CC1` [Compound 112], the inhibition at 10 µM in test [1] (24 h) is no less than 90%.

Consider `CCC(=O)N1CCN(c2cccc(O[C@H]3CC[C@H](Nc4ccc([N+](=O)[O-])c(C(F)(F)F)c4)CC3)n2)CC1` [Compound 115], for which the inhibition at 5 ppm in test [1] (24 h) was no less than 90%. Same read-out and setting: then `CC(C)(C)NC(=S)N1CCN(c2cccc(O[C@H]3CC[C@H](Nc4ccc([N+](=O)[O-])c(C(F)(F)F)c4)CC3)n2)CC1` [Compound 116], with no less than 90%; and `CCCNC(=S)N1CCN(c2cncc(O[C@H]3CC[C@H](Nc4ccc([N+](=O)[O-])c(C(F)(F)F)c4)CC3)c2)CC1` [Compound 119], with no less than 90%; and `CCCNC(=S)N1CCN(c2cccc(O[C@H]3CC[C@H](Nc4ccc([N+](=O)[O-])c(C(F)(F)F)c4)CC3)n2)CC1` [Compound 120], with no less than 90%.

For `CC(C)(C)OC(=O)N1CCN(c2ncccc2O[C@H]2CC[C@H](Nc3ccc([N+](=O)[O-])c(C(F)(F)F)c3)CC2)CC1` [Compound 121], the inhibition at 5 ppm in test [1] (24 h) was no less than 90%.

In the case of `CCNC(=S)N1CCN(c2cncc(O[C@H]3CC[C@H](Nc4ccc([N+](=O)[O-])c(C(F)(F)F)c4)CC3)c2)CC1` [Compound 124], the inhibition at 5 ppm in test [1] (24 h) is no less than 90%. Take `CCNC(=S)N1CCN(c2cccc(O[C@H]3CC[C@H](Nc4ccc([N+](=O)[O-])c(C(F)(F)F)c4)CC3)n2)CC1` [Compound 125]: the inhibition at 5 ppm in test [1] (24 h) is no less than 90%.

In the case of `CCCNC(=O)N1CCN(c2cccc(O[C@H]3CC[C@H](Nc4ccc([N+](=O)[O-])c(C(F)(F)F)c4)CC3)n2)CC1` [Compound 127, N-propyl-4-(6-[[4-[[4-nitro-3-(trifluoromethyl)phenyl]amino]cyclohexyl]oxy]pyridin-2-yl)piperazine-1-carboxamide], in test [1] (5 ppm, 24 hours), the inhibition at 5 ppm was no less than 90%. On to `CNC(=S)N1CCN(c2cncc(O[C@H]3CC[C@H](Nc4ccc([N+](=O)[O-])c(C(F)(F)F)c4)CC3)c2)CC1` [Compound 128], for which, in test [1] (24 h), the inhibition at 5 ppm is no less than 90%.

`CNC(=S)N1CCN(c2ccnc(O[C@H]3CC[C@H](Nc4ccc([N+](=O)[O-])c(C(F)(F)F)c4)CC3)c2)CC1` [Compound 129]: the inhibition at 5 ppm in test [1] (24 h) is no less than 90%. On the same count and under the same terms, to `CNC(=S)N1CCN(c2cccc(O[C@H]3CC[C@H](Nc4ccc([N+](=O)[O-])c(C(F)(F)F)c4)CC3)n2)CC1` [Compound 130] belongs no less than 90%; to `CCNC(=O)N1CCN(c2cccc(O[C@H]3CC[C@H](Nc4ccc([N+](=O)[O-])c(C(F)(F)F)c4)CC3)n2)CC1` [Compound 131], no less than 90%. As to `CN(c1ccc([N+](=O)[O-])c(C(F)(F)F)c1)[C@H]1CC[C@H](Oc2ccnc(N3CCN(C(=O)NC(C)(C)C)CC3)c2)CC1` [Compound 132], the inhibition at 10 µM in test [1] (10 μM, 24 hours) is no less than 90%. With `CCCCC(=O)N1CCN(c2cccc(O[C@H]3CC[C@H](Nc4ccc([N+](=O)[O-])c(C(F)(F)F)c4)CC3)n2)CC1` [Compound 136], the inhibition at 10 µM in test [1] (24 h) was no less than 90%. Still for that read-out and setting: to `O=C(Cc1cc(C(F)(F)F)cc(C(F)(F)F)c1)N1CCN(c2cc(O[C@H]3CC[C@H](Nc4ccc([N+](=O)[O-])c(C(F)(F)F)c4)CC3)ccn2)CC1` [Compound 137] belongs no less than 90%; to `O=C(Nc1ccc(C(F)(F)F)cc1)N1CCN(c2ccnc(O[C@H]3CC[C@H](Nc4ccc([N+](=O)[O-])c(C(F)(F)F)c4)CC3)c2)CC1` [Compound 138], no less than 90%; to `O=C(Nc1ccc(C(F)(F)F)cc1)N1CCN(c2cccc(O[C@H]3CC[C@H](Nc4ccc([N+](=O)[O-])c(C(F)(F)F)c4)CC3)n2)CC1` [Compound 139], no less than 90%. For `O=[N+]([O-])c1ccc(N[C@H]2CC[C@H](Oc3ccnc(N4CC5CN(c6ccc(C(F)(F)F)cn6)CC5C4)c3)CC2)cc1C(F)(F)F` (stereo partly shown) [Compound 140], the inhibition at 10 µM in test [1] (24 h) was no less than 90%. The same measure, in the same setting: to `O=[N+]([O-])c1ccc(N[C@H]2CC[C@H](Oc3cccc(N4CCN(CC5CCCC5)CC4)n3)CC2)cc1C(F)(F)F` [Compound 142] belongs no less than 90%; to `O=C(NC1CCCC1)N1CCN(c2cccc(O[C@H]3CC[C@H](Nc4ccc([N+](=O)[O-])c(C(F)(F)F)c4)CC3)n2)CC1` [Compound 147], no less than 90%. Same read-out and setting: to `CC(C)(C)NC(=O)N1CCN(c2cccc(O[C@H]3CC[C@H](Nc4ccc([N+](=O)[O-])c(C(F)(F)F)c4)CC3)n2)CC1` [Compound 150] belongs no less than 90%; to `CC(C)(C)OC(=O)N1CCN(c2cc(O[C@H]3CC[C@H](Nc4ccc(C#N)c(C(F)(F)F)c4)CC3)ccn2)CC1` [Compound 151], no less than 90%; to `CNC(=O)N1CCN(c2cncc(O[C@H]3CC[C@H](Nc4ccc([N+](=O)[O-])c(C(F)(F)F)c4)CC3)c2)CC1` [Compound 154], no less than 90%.

As for `CNC(=O)N1CCN(c2ccnc(O[C@H]3CC[C@H](Nc4ccc([N+](=O)[O-])c(C(F)(F)F)c4)CC3)c2)CC1` [Compound 155], in test [1] (24 h), the inhibition at 10 µM was no less than 90%. For `CCCCN1CCN(c2cccc(O[C@H]3CC[C@H](Nc4ccc([N+](=O)[O-])c(C(F)(F)F)c4)CC3)n2)CC1` [Compound 157], the inhibition at 10 µM in test [1] (24 h) is no less than 90%. Still for that read-out and setting: then `CCCN1CCN(c2cccc(O[C@H]3CC[C@H](Nc4ccc([N+](=O)[O-])c(C(F)(F)F)c4)CC3)n2)CC1` [Compound 158], with no less than 90%; and `CCN1CCN(c2cc(O[C@H]3CC[C@H](Nc4ccc([N+](=O)[O-])c(C(F)(F)F)c4)CC3)ccn2)CC1` [Compound 160], with no less than 90%. Take `O=C(CC1CCCC1)N1CCN(c2ccnc(O[C@H]3CC[C@H](Nc4ccc(S(=O)(=O)C(F)(F)F)cc4)CC3)c2)CC1` [Compound 163]: in the test on Haemonchus contortus, the inhibition at 5 µM is no less than 90%. Still for that read-out and setting: then `CCCOC(=O)N1CCN(c2cc(O[C@H]3CC[C@H](Nc4ccc(C#N)c(C(F)(F)F)c4)CC3)ccn2)CC1` [Compound 176], with no less than 90%.

For the molecule `CC(C)(C)OC(=O)N1CCN(c2cc(O[C@H]3CC[C@H](Nc4ccc(S(=O)(=O)C(F)(F)F)cc4)CC3)ccn2)CC1` [Compound 186], the inhibition at 10 µM in test [1] (24 h) was no less than 90%.

Take `CCCOC(=O)N1CCN(c2cc(O[C@H]3CC[C@H](Nc4ccc(S(=O)(=O)C(F)(F)F)cc4)CC3)ccn2)CC1` [Compound 187]: in test [1] (24 h), the inhibition at 10 µM is no less than 90%. As for `O=S(=O)(c1ccc(N[C@H]2CC[C@H](Oc3cncc(N4CCN(c5ccc(C(F)(F)F)cn5)CC4)c3)CC2)cc1)C(F)(F)F` [Compound 195], the inhibition at 10 µM in test [1] (24 h) is no less than 90%.

The record behind these values is patent US10597364B2, “Anthelmintic compounds, compositions and method of using thereof” (priority 2015, dated 2020).
